# In patent US11484539B2, “Compounds and their uses for alleviating menopause-associated symptoms” (Estetra SPRL, priority 2018, dated 2022):
# Test system: post-menopausal women
# Experiment: Weekly frequency of moderate to severe VMS, dose-finding study
# Type: in vivo
# Details: for Difference with placebo, LS adjusted mean, absolute change in weekly frequency of moderate to severe VMS / Difference with placebo, LS adjusted mean, relative change in weekly frequency of moderate to severe VMS: 15 mg E4 vs placebo; for Differences with placebo (including ineffective doses 2.5 mg and 5 mg), relative change in weekly frequency of moderate to severe VMS, LS adjusted mean / Differences with placebo (including ineffective doses 2.5 mg and 5 mg), relative change in weekly frequency of moderate to severe VMS, p_value: 15.0 mg vs 0 mg; for Relative change in weekly frequency of moderate to severe VMS, LS adjusted mean: analysis with placebo grouped with 2.5 and 5 mg; for Covariate significance, covariate trt1, p_value, relative change in weekly frequency of moderate to severe VMS: 10 mg, 15 mg vs placebo grouped with 2.5 and 5 mg
# Text: To determine the Minimum Effective Dose (MED), firstly the selection criteria required that patients presented at least 7 moderate to severe VMS/day or at least 50 moderate to severe VMS/week in the week preceding randomization. Secondly, a placebo group was included in a double-blind fashion. Thirdly, the total patient number was such that statistical significance could be obtained between separate arms of the study. Fourthly, the absolute change from baseline in weekly frequency of moderate to severe VMS was taken into account. An analysis of covariance (ANCOVA) was performed based on the untransformed change in weekly frequency of moderate to severe VMS from baseline. Finally, the change in severity from baseline was evaluated. For this, the Severity Scoring System of VMS was documented by the subjects as follows: • a score of Mild (1) for a sensation of heat without sweating; • a score of Moderate (2) for a sensation of heat with sweating/the subject is able to continue activity; and • a score of Severe (3) for a sensation of heat with sweating/which causes cessation of activity.
# Enrolment was approximately 18 months. Individual subject participation was up to 27 weeks: up to 6 weeks pre-screening and washout, up to 4 weeks screening and run-in period, up to 91 days (13 weeks) of E4/placebo treatment followed by 2 weeks (14 days) of progestin therapy and a Follow up visit 1 week after completion of progestin therapy in non-hysterectomised subjects only.
# To define the minimum effective dose (MED) of the oral dose of E4 by evaluating changes in frequency and in severity of moderate to severe vasomotor symptoms (VMS).
# This was a prospective, multicentre, randomised, placebo-controlled, double-blinded, dose-finding study.
# Eligible subjects were hysterectomised and non-hysterectomised post-menopausal women aged 40 to 65 years, inclusive, presenting at least 7 moderate to severe hot flushes/day or at least 50 moderate to severe hot flushes/week.
# The subjects have met all of the following inclusion criteria at the randomization visit. These criteria were assessed during the screening period: • 1. Women aged 40 to 65 years, inclusive, presenting at least 7 moderate to severe hot flushes/day or at least 50 moderate to severe hot flushes/week in the week preceding randomization. • 2. Body Mass Index (BMI) between 18.0 and 35.0 kg/m^2, inclusive. • 3. Post-menopausal status defined as levels of follicle stimulating hormone (FSH) >40 IU/L and: • amenorrhoea for at least 12 consecutive months or, • amenorrhoea for at least 6 months with estradiol (E2)<20 pg/mL or, • at least 6 weeks post-surgical bilateral oophorectomy with or without hysterectomy with a copy of the pathology report or a statement on letterhead from the subject's physician documenting both ovaries were removed is required. • 4. For non-hysterectomised women: intact uterus with bi-layer endometrial thickness […] on TVUS. • 5. Negative pregnancy test. • 6. Good physical and mental health, in the judgement of the Principal Investigator (PI), on the basis of medical, surgical and gynaecological history, physical examination, gynaecological examination, clinical laboratory, and vital signs. • 7. Subject has provided signed and dated written informed consent before admission to the study. • 8. Subject is able to understand and comply with the protocol requirements, instructions, and protocol-stated restrictions. Exclusion Criteria:
# All treatments (Estetrol, hereinafter, E4, [2.5 mg, 5 mg, 10 mg, 15 mg] capsule) were administered once daily (QD) per os for at least 12 consecutive weeks until the last biological assessments (Day 91 maximum) had been performed.
# In order to analyse the data recorded in this study, treatment groups have been compared using an ANCOVA (analysis of covariance) with respect to the change in weekly frequency of moderate to severe VMS from baseline to weeks 4 and 12. […]
# [1] = week 4, ANCOVA with study centre
# [2] = week 12, ANCOVA with study centre
smiles,measurement,setting,value
"C[C@]12CC[C@@H]3c4ccc(O)cc4CC[C@H]3[C@@H]1[C@@H](O)[C@@H](O)[C@@H]2O [E4, 1,3,5 (10)-estratrien-3,15alpha,16alpha,17beta-tetrol]",Mean change from baseline in weekly frequency of moderate to severe VMS,"15 mg E4 QD per os, week 4",−41.43
same,"Relative change (% from baseline) in weekly frequency of moderate to severe VMS, mean","15 mg E4 QD per os, week 4",−67%
same,Mean change from baseline in weekly frequency of moderate to severe VMS,"15 mg E4 QD per os, week 5",−44.34
same,"Relative change (% from baseline) in weekly frequency of moderate to severe VMS, mean","15 mg E4 QD per os, week 5",−72%
same,Mean change from baseline in weekly frequency of moderate to severe VMS,"15 mg E4 QD per os, week 6",−46.58
same,"Relative change (% from baseline) in weekly frequency of moderate to severe VMS, mean","15 mg E4 QD per os, week 6",−76%
same,Mean change from baseline in weekly frequency of moderate to severe VMS,"15 mg E4 QD per os, week 7",−48.51
same,"Relative change (% from baseline) in weekly frequency of moderate to severe VMS, mean","15 mg E4 QD per os, week 7",−79%
same,Mean change from baseline in weekly frequency of moderate to severe VMS,"15 mg E4 QD per os, week 8",−48.35
same,"Relative change (% from baseline) in weekly frequency of moderate to severe VMS, mean","15 mg E4 QD per os, week 8",−79%
same,Mean change from baseline in weekly frequency of moderate to severe VMS,"15 mg E4 QD per os, week 9",−49.62
same,"Relative change (% from baseline) in weekly frequency of moderate to severe VMS, mean","15 mg E4 QD per os, week 9",−81%
same,Mean change from baseline in weekly frequency of moderate to severe VMS,"15 mg E4 QD per os, week 10",−48.88
same,"Relative change (% from baseline) in weekly frequency of moderate to severe VMS, mean","15 mg E4 QD per os, week 10",−80%
same,Mean change from baseline in weekly frequency of moderate to severe VMS,"15 mg E4 QD per os, week 11",−49.92
same,"Relative change (% from baseline) in weekly frequency of moderate to severe VMS, mean","15 mg E4 QD per os, week 11",−82%
same,Mean change from baseline in weekly frequency of moderate to severe VMS,"15 mg E4 QD per os, week 12",−50.94
same,"Relative change (% from baseline) in weekly frequency of moderate to severe VMS, mean","15 mg E4 QD per os, week 12",−84%
same,"Difference with placebo, LS adjusted mean, absolute change in weekly frequency of moderate to severe VMS",[1],−9.804
same,"Difference with placebo, LS adjusted mean, relative change in weekly frequency of moderate to severe VMS",[1],−0.1564
same,"Difference with placebo, LS adjusted mean, absolute change in weekly frequency of moderate to severe VMS","week 4, without site effect",−10.71
same,"Difference with placebo, LS adjusted mean, relative change in weekly frequency of moderate to severe VMS","week 4, without site effect",−0.1703
same,"Difference with placebo, LS adjusted mean, absolute change in weekly frequency of moderate to severe VMS",[2],−10.09
same,"Difference with placebo, LS adjusted mean, relative change in weekly frequency of moderate to severe VMS",[2],−0.1585
same,"Difference with placebo, LS adjusted mean, absolute change in weekly frequency of moderate to severe VMS","week 12, without site effect",−10.98
same,"Difference with placebo, LS adjusted mean, relative change in weekly frequency of moderate to severe VMS","week 12, without site effect",−0.1723
same,Reduction in the frequency of moderate to severe VMS when compared to baseline,15 mg daily dose,over 80%
same,Responders: patients showing a response of 50% or more (relative change from baseline in weekly frequency of moderate to severe VMS),"15 mg daily dose, week 12",91.8%
same,Responders: patients showing a response of 75% or more (weekly frequency of moderate to severe VMS),"15 mg daily dose, week 12",77.6%
same,"Differences with placebo (including ineffective doses 2.5 mg and 5 mg), relative change in weekly frequency of moderate to severe VMS, LS adjusted mean",week 4,−0.1797
same,"Differences with placebo (including ineffective doses 2.5 mg and 5 mg), relative change in weekly frequency of moderate to severe VMS, p_value",week 4,0.00218
same,"Differences with placebo (including ineffective doses 2.5 mg and 5 mg), relative change in weekly frequency of moderate to severe VMS, LS adjusted mean",week 12,−0.1826
same,"Differences with placebo (including ineffective doses 2.5 mg and 5 mg), relative change in weekly frequency of moderate to severe VMS, p_value",week 12,0.00099
same,"Relative change (% from baseline) in weekly frequency of moderate to severe VMS, mean","15 mg, Week 12",−84%
same,"Relative change (% from baseline) in weekly frequency of moderate to severe VMS, mean","15 mg, week 0",0%
same,"Relative change (% from baseline) in weekly frequency of moderate to severe VMS, mean","15 mg, week 1",−22%
same,"Relative change (% from baseline) in weekly frequency of moderate to severe VMS, mean","15 mg, week 2",−46%
same,"Relative change (% from baseline) in weekly frequency of moderate to severe VMS, mean","15 mg, week 3",−57%
same,"Relative change (% from baseline) in weekly frequency of moderate to severe VMS, mean","15 mg, week 4",−67%
same,"Relative change in weekly frequency of moderate to severe VMS, LS adjusted mean","15 mg, week 4",−0.6475
same,"Relative change (% from baseline) in weekly frequency of moderate to severe VMS, mean","15 mg, week 5",−72%
same,"Relative change (% from baseline) in weekly frequency of moderate to severe VMS, mean","15 mg, week 6",−76%
same,"Relative change (% from baseline) in weekly frequency of moderate to severe VMS, mean","15 mg, week 7",−79%
same,"Relative change (% from baseline) in weekly frequency of moderate to severe VMS, mean","15 mg, week 8",−79%
same,"Relative change (% from baseline) in weekly frequency of moderate to severe VMS, mean","15 mg, week 9",−81%
same,"Relative change (% from baseline) in weekly frequency of moderate to severe VMS, mean","15 mg, week 10",−80%
same,"Relative change (% from baseline) in weekly frequency of moderate to severe VMS, mean","15 mg, week 11",−82%
same,"Relative change in weekly frequency of moderate to severe VMS, LS adjusted mean","15 mg, week 12",−0.8006
same,Minimal Effective Dose for the alleviation of VMS,perimenopausal and postmenopausal women,about 15 mg daily
same,Efficacy on vasomotor parameters,two lowest doses tested (2.5 mg per day and 5 mg per day),did not show efficacy
same,"Covariate significance, covariate trt1, p_value, relative change in weekly frequency of moderate to severe VMS",week 4,0.0039
same,"Covariate significance, covariate trt1, p_value, relative change in weekly frequency of moderate to severe VMS",week 12,0.0017
